This test deals with C2C12. The test is described as follows: Induction of [3H]2-deoxy-D-glucose uptake in mouse C2C12 cells after 18 hrs by scintillation counting. The class given is functional, cell-based.

Molecules are shown by their SMILES.

The EC50 is the concentration needed to bring the measured effect to its halfway point. Take `C=C(C)[C@@H]1CC[C@]2(CO)CC[C@]3(C)[C@H](CC[C@@H]4[C@@]5(C)CC[C@H](OC(=O)/C=C/c6ccc(O)c(O)c6)[C@@](C)(CO)[C@@H]5CC[C@]43C)[C@@H]12`: the EC50 worked out at 1470 nM.
